Laboratory results reported in patent publication US20140228377A1, “METHYLPIPERIDINE DERIVATIVE” (TAISHO PHARMACEUTICAL CO., LTD., priority 2011, published 2014).

Tests used:
[1] = target: T1, orexin-2 receptor (hOX2R) (Homo sapiens, UniProt O43614); test: Orexin antagonistic activity assay (intracellular Ca2+, FDSS) in CHO cells expressing hOX2R; type: cell-based; settings: CHO cells expressing hOX2R; ligand peptide 3 nM; Fluo-3 maximum fluorescence intensity; read-out: IC50 value OX2
T1 construct: expressed in transfected cells; host or cells: Chinese hamster ovary (CHO) cells
T1 sequence (O43614 1-444): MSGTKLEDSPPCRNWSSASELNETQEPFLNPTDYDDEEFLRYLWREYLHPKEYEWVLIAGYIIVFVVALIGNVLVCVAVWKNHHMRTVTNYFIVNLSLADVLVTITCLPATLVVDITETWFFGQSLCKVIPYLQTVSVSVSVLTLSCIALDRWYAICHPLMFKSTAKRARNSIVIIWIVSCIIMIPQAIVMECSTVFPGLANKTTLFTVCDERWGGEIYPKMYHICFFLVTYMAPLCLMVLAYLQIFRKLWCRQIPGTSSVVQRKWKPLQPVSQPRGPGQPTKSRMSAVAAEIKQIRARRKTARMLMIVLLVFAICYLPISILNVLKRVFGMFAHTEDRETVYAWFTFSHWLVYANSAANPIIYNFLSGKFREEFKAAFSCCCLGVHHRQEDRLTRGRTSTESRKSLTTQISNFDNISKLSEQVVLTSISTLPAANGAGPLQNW
Description: (§1) The antagonistic activity of each test compound against human orexin-1 receptor (hOX1R) and orexin-2 receptor (hOX2R) was assayed by a modification of a method described in the literature (Toshikatsu Okumura et al., Biochemical and Biophysical Research Communications 280, 976-981, 2001). Chinese hamster ovary (CHO) cells forced to express hOX1R or hOX2R were inoculated at a density of 20,000 cells/well to a 96-well Black clear bottom plate (Nunc) and cultured at 37° C. for 16 hours under 5% CO2 conditions in a Ham's F-12 medium containing 0.1 mM MEM nonessential amino acids, 0.5 mg/ml G418, and 10% fetal bovine serum (all from Invitrogen Corp.). After removal of the medium, 100 μL of a buffer solution for assay (25 mM HEPES (Dojindo Laboratories), Hanks' balanced salt solution (Invitrogen Corp.), 0.1% bovine serum albumin, 2.5 mM probenecid, and 200 μg/ml Amaranth (all from Sigma-Aldrich Corp.), pH 7.4) containing 0.5 μM Fluo-3 AM ester (Dojindo Laboratories) was added to the cells, which were then incubated at 37° C. for 60 minutes under 5% CO2 conditions. After removal of the buffer solution for assay containing Fluo-3 AM ester, each test compound was dissolved at a concentration of 10 mM in dimethyl sulfoxide and diluted with a buffer solution for assay. Then, 150 μL of the solution was added to the cells, which were then incubated for 30 minutes.
(§2) A ligand peptide (Pyr-[…]NH2; Peptide Institute, Inc.) derived from human orexin-A by the substitution of two amino acids was diluted with a buffer solution for assay to final concentrations of 300 pM for hOX1R and 3 nM for hOX2R. Reaction was initiated by the addition of 50 μL of this ligand solution. The fluorescence intensity of the reaction was measured in each well every second for 3 minutes using Functional Drug Screening System (FDSS; manufactured by Hamamatsu Photonics K.K.), and the maximum fluorescence intensity was used as an index for intracellular Ca^2+ concentration to determine antagonistic activity. The antagonistic activity of the test compound was calculated with fluorescence intensity from a well supplemented with only a diluting buffer solution as 100% and fluorescence intensity from a well supplemented with a buffer solution free from the ligand and the compound as 0%. The 50% inhibitory concentration (IC50 value) was determined on the basis of fluorescence intensity derived from the test compound added at varying concentrations.

[2] = target: T2, human orexin-1 receptor (hOX1R) (Homo sapiens, UniProt O43613); test: Orexin antagonistic activity assay (intracellular Ca2+, FDSS) in CHO cells expressing hOX1R; type: cell-based; settings: CHO cells expressing hOX1R; ligand peptide 300 pM; Fluo-3 maximum fluorescence intensity; read-out: IC50 value OX1
T2 construct: expressed in transfected cells; host or cells: Chinese hamster ovary (CHO) cells
T2 sequence (O43613 1-425): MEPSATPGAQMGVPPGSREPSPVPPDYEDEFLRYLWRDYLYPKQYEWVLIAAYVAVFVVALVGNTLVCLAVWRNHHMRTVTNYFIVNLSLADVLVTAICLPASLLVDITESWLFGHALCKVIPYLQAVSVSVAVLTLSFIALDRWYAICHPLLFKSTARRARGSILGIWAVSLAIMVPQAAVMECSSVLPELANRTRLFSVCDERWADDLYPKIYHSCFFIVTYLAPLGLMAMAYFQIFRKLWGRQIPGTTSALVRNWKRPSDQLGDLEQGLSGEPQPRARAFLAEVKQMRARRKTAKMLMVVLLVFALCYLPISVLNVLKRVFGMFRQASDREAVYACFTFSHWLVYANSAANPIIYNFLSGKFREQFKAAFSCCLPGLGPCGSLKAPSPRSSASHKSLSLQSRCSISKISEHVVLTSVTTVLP
Description: as §1, §2

| IC50 [1] [nM] | IC50 [2] [nM] | SMILES |
| --- | --- | --- |
| 919 | 1040 | Cc1ccc(-n2nccn2)c(C(=O)N2C[C@H](c3nc4cc(OC(F)(F)F)ccc4o3)CC[C@H]2C)n1 [Example 42, [6-Methyl-3-(2H-1,2,3-triazol-2-yl)pyridin-2-yl]{(2R,5R)-2-methyl-5-[5-(trifluoromethoxy)-1,3-benzoxazol-2-yl]piperidin-1-yl}methanone] |
| 9.8 | 4.1 | Cc1ccc(-n2nccn2)c(C(=O)N2C[C@H](c3nc4ccc(Cl)cc4o3)CC[C@H]2C)c1 [Example 43, [(2R,5R)-5-(6-Chloro-1,3-benzoxazol-2-yl)-2-methylpiperidin-1-yl][5-methyl-2-(2H-1,2,3-triazol-2-yl)phenyl]methanone] |
| 23.1 | 9.1 | Cc1ccc(-c2ncccn2)c(C(=O)N2C[C@H](c3nc4ccc(Cl)cc4o3)CC[C@H]2C)c1 [Example 44, [(2R,5R)-5-(6-Chloro-1,3-benzoxazol-2-yl)-2-methylpiperidin-1-yl][5-methyl-2-(pyrimidin-2-yl)phenyl]methanone] |
| 12.2 | 77.2 | C[C@@H]1CC[C@@H](c2nc3ccc(Cl)cc3o2)CN1C(=O)c1cc(F)ccc1-c1ncccn1 [Example 45, [(2R,5R)-5-(6-Chloro-1,3-benzoxazol-2-yl)-2-methylpiperidin-1-yl][5-fluoro-2-(pyrimidin-2-yl)phenyl]methanone] |
| 70 | 10 | Cc1ccc(-n2nccn2)c(C(=O)N2C[C@H](c3nc4ccc(Cl)cc4o3)CC[C@H]2C)n1 [Example 46, [(2R,5R)-5-(6-Chloro-1,3-benzoxazol-2-yl)-2-methylpiperidin-1-yl][6-methyl-3-(2H-1,2,3-triazol-2-yl)pyridin-2-yl]methanone] |
| 16.6 | 58.6 | C[C@@H]1CC[C@@H](c2nc3ccc(Cl)cc3o2)CN1C(=O)c1ccc(F)cc1-n1nccn1 [Example 47, [(2R,5R)-5-(6-Chloro-1,3-benzoxazol-2-yl)-2-methylpiperidin-1-yl][4-fluoro-2-(2H-1,2,3-triazol-2-yl)phenyl]methanone] |
| 12.4 | 58.8 | C[C@@H]1CC[C@@H](c2nc3ccc(Cl)cc3o2)CN1C(=O)c1c(F)cccc1-n1nccn1 [Example 48, [(2R,5R)-5-(6-Chloro-1,3-benzoxazol-2-yl)-2-methylpiperidin-1-yl][2-fluoro-6-(2H-1,2,3-triazol-2-yl)phenyl]methanone] |
| 93.1 | 103 | C[C@@H]1CC[C@@H](c2nc3ccc(F)cc3o2)CN1C(=O)c1cc(Cl)ccc1-c1ncccn1 [Example 49, [5-Chloro-2-(pyrimidin-2-yl)phenyl][(2R,5R)-5-(6-fluoro-1,3-benzoxazol-2-yl)-2-methylpiperidin-1-yl]methanone] |
| 8.6 | 9.8 | Cc1ccc(-n2nccn2)c(C(=O)N2C[C@H](c3nc4cc(F)c(F)cc4o3)CC[C@H]2C)c1 [Example 50, [(2R,5R)-5-(5,6-Difluoro-1,3-benzoxazol-2-yl)-2-methylpiperidin-1-yl][5-methyl-2-(2H-1,2,3-triazol-2-yl)phenyl]methanone] |
| 7.3 | 13.5 | Cc1ccc(-c2ncccn2)c(C(=O)N2C[C@H](c3nc4cc(F)c(F)cc4o3)CC[C@H]2C)c1 [Example 51, [(2R,5R)-5-(5,6-Difluoro-1,3-benzoxazol-2-yl)-2-methylpiperidin-1-yl][5-methyl-2-(pyrimidin-2-yl)phenyl]methanone] |
| 11 | 82.9 | C[C@@H]1CC[C@@H](c2nc3cc(F)c(F)cc3o2)CN1C(=O)c1cc(F)ccc1-c1ncccn1 [Example 52, [(2R,5R)-5-(5,6-Difluoro-1,3-benzoxazol-2-yl)-2-methylpiperidin-1-yl][5-fluoro-2-(pyrimidin-2-yl)phenyl]methanone] |
| 13.2 | 56.3 | C[C@@H]1CC[C@@H](c2nc3cc(F)c(F)cc3o2)CN1C(=O)c1cc(Cl)ccc1-c1ncccn1 [Example 53, [5-Chloro-2-(pyrimidin-2-yl)phenyl][(2R,5R)-5-(5,6-difluoro-1,3-benzoxazol-2-yl)-2-methylpiperidin-1-yl]methanone] |
| 52 | 98.7 | Cc1ccc(-n2nccn2)c(C(=O)N2C[C@H](c3nc4cc(F)c(F)cc4o3)CC[C@H]2C)n1 [Example 54, [(2R,5R)-5-(5,6-Difluoro-1,3-benzoxazol-2-yl)-2-methylpiperidin-1-yl][6-methyl-3-(2H-1,2,3-triazol-2-yl)pyridin-2-yl]methanone] |
| 9.4 | 207 | C[C@@H]1CC[C@@H](c2nc3cc(F)c(F)cc3o2)CN1C(=O)c1ccc(F)cc1-n1nccn1 [Example 55, [(2R,5R)-5-(5,6-Difluoro-1,3-benzoxazol-2-yl)-2-methylpiperidin-1-yl][4-fluoro-2-(2H-1,2,3-triazol-2-yl)phenyl]methanone] |
| 10 | 164 | Cc1ccc(-n2nccn2)c(C(=O)N2C[C@H](c3nc4cc(C#N)ccc4o3)CC[C@H]2C)c1 [Example 56, 2-[(3R,6R)-6-Methyl-1-[5-methyl-2-(2H-1,2,3-triazol-2-yl)benzoyl]piperidin-3-yl]-1,3-benzoxazole-5-carbonitrile] |
| 20.1 | 561 | Cc1ccc(-c2ncccn2)c(C(=O)N2C[C@H](c3nc4cc(C#N)ccc4o3)CC[C@H]2C)c1 [Example 57, 2-{(3R,6R)-6-Methyl-1-[5-methyl-2-(pyrimidin-2-yl)benzoyl]piperidin-3-yl}-1,3-benzoxazole-5-carbonitrile] |
| 9.4 | 9.3 | Cc1ccc(-n2nccn2)c(C(=O)N2C[C@H](c3nc4ccc(F)c(F)c4o3)CC[C@H]2C)c1 [Example 58, [(2R,5R)-5-(6,7-Difluoro-1,3-benzoxazol-2-yl)-2-methylpiperidin-1-yl][5-methyl-2-(2H-1,2,3-triazol-2-yl)phenyl]methanone] |
| 9.2 | 4.4 | Cc1ccc(-c2ncccn2)c(C(=O)N2C[C@H](c3nc4ccc(F)c(F)c4o3)CC[C@H]2C)c1 [Example 59, [(2R,5R)-5-(6,7-Difluoro-1,3-benzoxazol-2-yl)-2-methylpiperidin-1-yl][5-methyl-2-(pyrimidin-2-yl)phenyl]methanone] |
| 45.7 | 93.3 | Cc1ccc(-n2nccn2)c(C(=O)N2C[C@H](c3nc4c(F)cc(F)cc4o3)CC[C@H]2C)c1 [Example 60, [(2R,5R)-5-(4,6-Difluoro-1,3-benzoxazol-2-yl)-2-methylpiperidin-1-yl][5-methyl-2-(2H-1,2,3-triazol-2-yl)phenyl]methanone] |
| 44.2 | 81.3 | Cc1ccc(-c2ncccn2)c(C(=O)N2C[C@H](c3nc4c(F)cc(F)cc4o3)CC[C@H]2C)c1 [Example 61, [(2R,5R)-5-(4,6-Difluoro-1,3-benzoxazol-2-yl)-2-methylpiperidin-1-yl][5-methyl-2-(pyrimidin-2-yl)phenyl]methanone] |
